Test results from US9907800B2, “Kinase inhibitors and method of treating cancer” (University Health Network, priority 2010, dated 2018).

Columns and labels:
Format in all cases: biochemical
human PLK4 = human PLK4 (Homo sapiens (Human), UniProt O00444); experiment: PLK4 inhibition assay (indirect ELISA); settings: read-out: PLK4 IC50 Ranges
Aurora B = Aurora B (Homo sapiens (Human), UniProt Q96GD4); experiment: Aurora B inhibition assay (Z-Lyte); settings: read-out: Aurora B IC50 Ranges
FLT3 = FLT3 (Homo sapiens (Human), UniProt P36888); experiment: FLT3 inhibition assay (Z-Lyte); settings: read-out: Flt3 IC50 Ranges
Sequence of FLT3 (P36888 27-993): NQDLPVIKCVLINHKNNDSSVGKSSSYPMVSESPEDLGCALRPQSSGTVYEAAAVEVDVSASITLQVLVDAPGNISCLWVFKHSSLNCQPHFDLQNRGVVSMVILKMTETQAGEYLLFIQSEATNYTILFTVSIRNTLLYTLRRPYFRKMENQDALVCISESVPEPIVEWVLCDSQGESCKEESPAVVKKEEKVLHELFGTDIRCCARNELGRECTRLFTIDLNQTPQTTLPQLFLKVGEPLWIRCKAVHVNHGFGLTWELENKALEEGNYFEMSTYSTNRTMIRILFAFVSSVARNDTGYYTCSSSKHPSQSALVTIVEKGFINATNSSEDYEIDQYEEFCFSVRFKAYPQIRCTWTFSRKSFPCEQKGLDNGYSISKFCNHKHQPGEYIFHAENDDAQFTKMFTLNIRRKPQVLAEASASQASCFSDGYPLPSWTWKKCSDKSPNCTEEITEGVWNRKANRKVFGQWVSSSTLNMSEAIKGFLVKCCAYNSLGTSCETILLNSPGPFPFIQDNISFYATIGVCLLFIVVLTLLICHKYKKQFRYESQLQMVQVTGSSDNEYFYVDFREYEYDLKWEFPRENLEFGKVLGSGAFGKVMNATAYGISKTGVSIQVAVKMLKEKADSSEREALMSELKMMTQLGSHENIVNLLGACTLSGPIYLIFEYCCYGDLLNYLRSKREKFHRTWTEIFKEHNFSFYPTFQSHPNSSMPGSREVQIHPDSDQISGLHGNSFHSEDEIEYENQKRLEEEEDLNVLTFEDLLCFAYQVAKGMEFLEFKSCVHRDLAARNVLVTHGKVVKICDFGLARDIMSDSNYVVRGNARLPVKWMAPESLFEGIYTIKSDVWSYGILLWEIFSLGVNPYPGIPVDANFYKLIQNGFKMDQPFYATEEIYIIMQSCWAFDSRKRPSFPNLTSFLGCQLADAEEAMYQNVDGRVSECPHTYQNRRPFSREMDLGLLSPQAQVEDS

Sequence of human PLK4 (O00444 1-391): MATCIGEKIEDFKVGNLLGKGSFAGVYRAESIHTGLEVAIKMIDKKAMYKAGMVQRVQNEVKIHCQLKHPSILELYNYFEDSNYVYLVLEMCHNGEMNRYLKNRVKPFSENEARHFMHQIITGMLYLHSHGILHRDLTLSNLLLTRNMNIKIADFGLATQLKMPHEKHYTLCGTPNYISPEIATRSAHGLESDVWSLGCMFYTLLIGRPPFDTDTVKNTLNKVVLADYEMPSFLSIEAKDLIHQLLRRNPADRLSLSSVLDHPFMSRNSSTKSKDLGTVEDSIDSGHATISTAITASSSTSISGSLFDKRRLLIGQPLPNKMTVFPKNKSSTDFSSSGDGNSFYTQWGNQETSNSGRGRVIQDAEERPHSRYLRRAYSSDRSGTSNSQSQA
Sequence of Aurora B (Q96GD4 whole entry): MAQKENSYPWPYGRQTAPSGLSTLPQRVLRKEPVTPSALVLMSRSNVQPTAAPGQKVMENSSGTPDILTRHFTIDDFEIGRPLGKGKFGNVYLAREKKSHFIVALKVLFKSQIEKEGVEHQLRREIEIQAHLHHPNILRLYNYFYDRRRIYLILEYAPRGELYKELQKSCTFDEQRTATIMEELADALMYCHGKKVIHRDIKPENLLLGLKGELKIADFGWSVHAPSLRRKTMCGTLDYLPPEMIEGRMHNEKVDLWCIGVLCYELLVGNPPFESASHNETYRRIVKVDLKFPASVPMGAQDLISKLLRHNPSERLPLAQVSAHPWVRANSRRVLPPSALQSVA

Structure (SMILES)	IC50 (human PLK4) [nM]	IC50 (Aurora B) [nM]	IC50 (FLT3) [nM]
COc1ccc2c(c1)[C@]1(C[C@H]1c1ccc3c(-c4cccc(CN5CCCCC5)c4)n[nH]c3c1)C(=O)N2 (relative stereo) [Example A44, (1R*,2S*)-5′-methoxy-2-(3-(3-(piperidin-1-ylmethyl)phenyl)-1H-indazol-6-yl)spiro[cyclopropane-1,3′-indolin]-2′-one 2,2,2-trifluoroacetate]	< 100	100 to 1000	> 1000
COc1ccc2c(c1)[C@]1(C[C@H]1c1ccc3c(-c4ccc(CO)cc4)n[nH]c3c1)C(=O)N2 (relative stereo) [Example A45, (1R*,2S*)-2-(3-(4-(hydroxymethyl)phenyl)-1H-indazol-6-yl)-5′-methoxyspiro[cyclopropane-1,3′-indolin]-2′-one 2,2,2-trifluoroacetate]	< 100	100 to 1000	> 1000
COc1ccc2c(c1)[C@]1(C[C@H]1c1ccc3c(-c4cccc(N5CCNCC5)c4)n[nH]c3c1)C(=O)N2 (relative stereo) [Example A47, (1R*,2S*)-5′-methoxy-2-(3-(3-(piperazin-1-yl)phenyl)-1H-indazol-6-yl)spiro[cyclopropane-1,3′-indolin]-2′-one 2,2,2-trifluoroacetate]	< 100	100 to 1000	> 1000
COc1ccc2c(c1)[C@@]1(C[C@@H]1c1ccc3c(-c4ccc(N5CCN(C)CC5)nc4)n[nH]c3c1)C(=O)N2 (stereo in doubt) [Example A16, (1S,2R)-5′-methoxy-2-(3-(6-(4-methylpiperazin-1-yl)pyridin-3-yl)-1H-indazol-6-yl)spiro[cyclopropane-1,3′-indolin]-2′-one]	< 100	< 100	< 100
COc1ccc2c(c1)[C@]1(C[C@H]1c1ccc3c(/C=C/c4cccc(CN5CCOCC5)c4)n[nH]c3c1)C(=O)N2 [Example A132, (1R,2S)-5′-methoxy-2-(3-(3-(morpholinomethyl)styryl)-1H-indazol-6-yl)spiro[cyclopropane-1,3′-indolin]-2′-one 2,2,2-trifluoroacetate]			< 100
COc1ccc2c(c1)[C@]1(C[C@H]1c1ccc3c(/C=C/c4cccc(CN(C)C)c4)n[nH]c3c1)C(=O)N2 [Example A134, (1R,2S)-2-(3-(3-((dimethylamino)methyl)styryl)-1H-indazol-6-yl)-5′-methoxyspiro[cyclopropane-1,3′-indolin]-2′-one 2,2,2-trifluoroacetate]			< 100
O=C1Nc2ccccc2[C@]12C[C@H]2c1ccc2c(/C=C/c3ccc(OCCN4CCOCC4)cc3)n[nH]c2c1 [Example A204, (1R,2S)-(E)-2-(3-(4-(2-morpholinoethoxy)styryl)-1H-indazol-6-yl)spiro[cyclopropane-1,3′-indolin]-2′-one 2,2,2-trifluoroacetate]	< 100	< 100	
O=C1Nc2ccccc2[C@]12C[C@H]2c1ccc2c(/C=C/c3ccc(CCN4CCOCC4)cc3)n[nH]c2c1 [Example A205, (1R,2S)-(E)-2-(3-(4-(2-morpholinoethyl)styryl)-1H-indazol-6-yl)spiro[cyclopropane-1,3′-indolin]-2′-one 2,2,2-trifluoroacetate]	< 100	< 100	

Further lines, results first:

IC50 (human PLK4) [nM]	IC50 (Aurora B) [nM]	IC50 (FLT3) [nM]	Structure (SMILES)
> 1000	> 1000	> 1000	CCc1ccc2c(c1)[C@]1(C[C@H]1c1ccc3c(-c4cccc(CN5CCOCC5)c4)n[nH]c3c1)C(=O)N2 (relative stereo) [Example A141, (1R*,2S*)-5′-ethyl-2-(3-(3-(morpholinomethyl)phenyl)-1H-indazol-6-yl)spiro[cyclopropane-1,3′-indolin]-2′-one 2,2,2-trifluoroacetate]
< 100	> 1000	> 1000	COc1ccc2c(c1)[C@]1(C[C@H]1c1ccc3c(-c4cccc(C(=O)N5CCN(C)CC5)c4)n[nH]c3c1)C(=O)N2 (relative stereo) [Example A149, (1R*,2S*)-5′-methoxy-2-(3-(3-(4-methylpiperazine-1-carbonyl)phenyl)-1H-indazol-6-yl)spiro[cyclopropane-1,3′-indolin]-2′-one 2,2,2-trifluoroacetate]
		< 100	COc1ccc2c(c1)[C@]1(C[C@H]1c1ccc3c(-c4ccc(N5CCN(C(C)C)CC5)cc4)n[nH]c3c1)C(=O)N2 [Example A97, (1R,2S)-2-(3-(4-(4-isopropylpiperazin-1-yl)phenyl)-1H-indazol-6-yl)-5′-methoxyspiro[cyclopropane-1,3′-indolin]-2′-one 2,2,2-trifluoroacetate]
< 100		100 to 1000	COc1ccc2c(c1)[C@]1(C[C@H]1c1ccc3c(-c4ccc(N5CC[C@H](N(C)C)C5)cc4)n[nH]c3c1)C(=O)N2 [Example A128, (1R,2S)-2-(3-(4-((S)-3-(dimethylamino)pyrrolidin-1-yl)phenyl)-1H-indazol-6-yl)-5′-methoxyspiro[cyclopropane-1,3′-indolin]-2′-one 2,2,2-trifluoroacetate]
		100 to 1000	COc1ccc2c(c1)[C@]1(C[C@H]1c1ccc3c(/C=C/c4ccc(CN5C[C@@H](C)O[C@@H](C)C5)cc4)n[nH]c3c1)C(=O)N2 [Example A185]
< 100	< 100		O=C1Nc2ccccc2[C@]12C[C@H]2c1ccc2c(/C=C/c3csc(CN4CCOCC4)c3)n[nH]c2c1 [Example A202, (1R,2S)-2-(3-((E)-2-(5-(morpholinomethyl)thiophen-3-yl)vinyl)-1H-indazol-6-yl)spiro[cyclopropane-1,3′-indolin]-2′-one 2,2,2-trifluoroacetate]
< 100	< 100		COc1ccc2c(c1)[C@]1(C[C@H]1c1ccc3c(/C=C/c4ccc(CN5[C@H](C)CCC[C@@H]5C)cc4)n[nH]c3c1)C(=O)N2 [Example A203, (1R,2S)-(E)-2-(3-(4-((cis-2,6-dimethylpiperidin-1-yl)methyl)styryl)-1H-indazol-6-yl)-5′-methoxyspiro[cyclopropane-1,3′-indolin]-2′-one 2,2,2-trifluoroacetate]
< 100	< 100		CCN(CC)Cc1ccc(/C=C/c2n[nH]c3cc([C@@H]4C[C@@]45C(=O)Nc4ccc(OC)cc45)ccc23)cc1 [Example A206, (1R,2S)-(E)-2-(3-(4-((diethylamino)methyl)styryl)-1H-indazol-6-yl)-5′-methoxy spiro[cyclopropane-1,3′-indolin]-2′-one 2,2,2-trifluoroacetate]
< 100	< 100		COc1ccc2c(c1)[C@]1(C[C@H]1c1ccc3c(/C=C/c4cc(F)c(CN(C)C)c(F)c4)n[nH]c3c1)C(=O)N2 [Example A216, (1R,2S)-(E)-2-(3-(4-((dimethylamino)methyl)-3,5-difluorostyryl)-1H-indazol-6-yl)-5′-methoxyspiro[cyclopropane-1,3′-indolin]-2′-one 2,2,2-trifluoroacetate]
< 100	< 100		CCN(CC)Cc1c(F)cc(/C=C/c2n[nH]c3cc([C@@H]4C[C@@]45C(=O)Nc4ccccc45)ccc23)cc1F [Example A221, (1R,2S)-(E)-2-(3-(4-((diethylamino)methyl)-3,5-difluorostyryl)-1H-indazol-6-yl)spiro[cyclopropane-1,3′-indolin]-2′-one 2,2,2-trifluoroacetate]
